In patent publication US9663495B2 (YUHAN CORPORATION, priority 2013, dated 2017):

Columns and labels:
GPR119 [1] = target: T1, GPR119 (Homo sapiens, UniProt Q8TDV5); assay: cAMP Accumulation Assay (GPR119 CRE-bla CHO-K1 cells, LiveBLAzer-FRET B/G); format: cell-based; conditions: for EC50: 5 hours incubation; for Emax (Fold): maximum activity, response ratio versus non-treated control group
T1 construct: host or cells: CHO-K1 (GPR119 CRE-bla, doxycycline-induced)
T1 sequence (Q8TDV5 1-335): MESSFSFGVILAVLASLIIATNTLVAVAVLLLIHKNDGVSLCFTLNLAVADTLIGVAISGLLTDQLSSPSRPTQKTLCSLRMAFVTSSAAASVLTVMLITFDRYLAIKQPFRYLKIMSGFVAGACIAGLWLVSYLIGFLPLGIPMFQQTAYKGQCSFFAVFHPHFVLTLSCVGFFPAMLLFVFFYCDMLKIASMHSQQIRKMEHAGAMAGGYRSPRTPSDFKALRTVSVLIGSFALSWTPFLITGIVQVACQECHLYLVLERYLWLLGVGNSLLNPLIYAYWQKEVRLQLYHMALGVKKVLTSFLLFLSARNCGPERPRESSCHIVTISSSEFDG
Procedure: 32 μl of an assay medium (DMEM supplemented with GlutaMax™ 99%, dialyzed FBS 1%, non-essential amino acid 1 mM, HEPES 25 mM, penicillin 100 U/ml, and streptomycin 100 μg/ml) was added to each well of a 384 black well plate and then the GPR119 CRE-bla CHO-K1 cells (Invitrogen) were seeded in 1×10^4 cells per well. Doxycycline was dissolved in the assay medium in the concentration of 1 μg/ml. The resulting solution (4 μl) was added to each well, which was then incubated in a 5% CO 2 incubator at 37° C. for about 20 to 24 hours. Each test compounds were diluted with the assay medium to prepare 10 samples, which have concentrations ranging from […], respectively. Each samples (8 μl) was added to each well, which was then incubated in a 5% CO2 incubator at 37° C. for 5 hours. In case of the control group, the well was treated with a solution (8 μl) prepared by diluting dimethyl sulfoxide (DMSO) in the assay medium to 1%. The substrate mixture (8 μl) was added to each well, which was then left under darkness at room temperature for 2 hours. The substrate mixture contains the followings: 1 mM LiveBLAzer™-FRET B/G(CCF4-AM) substrate 6 μl, solution B 60 μl, solution C 904 μl, and solution D 30 μl.
Fluorescence intensity was determined under the wavelength conditions of 400 nm/465 nm (excitation/emission) for the blue channel and 400 nm/535 nm (excitation/emission) for the green channel, with the fluorescence microplate reader (SpectraFluor Plus. TECAN). The net activity of each well was calculated by subtracting the average value of the cell-free control group from the value of the unstimulated (i.e., non-treated) control group or the stimulated (i.e., test compound-treated) group at each wavelength. MBX-2982 (Metabolex) was used as a control drug. The response ratio was calculated by dividing the net signal ratio (465 nm/535 nm) of the control drug or the test compound by the net signal ratio (465 nm/535 nm) of the non-treated control group. The relative ratio (R.R) was calculated by dividing the maximum activity [Emax (fold)] of the test compound (i.e., % activity in comparison with the background) by the maximum activity [Emax (fold)] of the control drug (MBX-2982) [Emax (% RR)=(Emax of the test compound/Emax of MBX-2982)×100]. EC50 (half maximal effective concentration) was calculated using the software for statistical analysis “Prism 5.0 (GraphPad)”, based on the values obtained according to concentrations of the test compounds.

GPR119 [2] = target: T1, GPR119; assay: as above; format: cell-based; conditions: (Emax of the test compound/Emax of MBX-2982)x100, 5 hours incubation

EC50 (GPR119 [1]) | Emax (Fold) (GPR119 [1]) | Emax (% RR) (GPR119 [2]) | Structure (SMILES)
4 nM | 3.9 Fold | 145.6 % RR | CCc1cnc(N2CCN(c3ncc(-c4ccc(-n5cnn(CN6CCCC6)c5=O)c(F)c4)cc3C#N)[C@@H](C)C2)nc1 [Example 28, (S)-2-(4-(5-ethylpyrimidin-2-yl)-2-methylpiperazin-1-yl)-5-(3-fluoro-4-(5-oxo-1-(pyrrolidin-1-ylmethyl)-1H-1,2,4-triazol-4(5H)-yl)phenyl)nicotinonitrile]
3.1 nM | 4.0 Fold | 149.4 % RR | CCc1cnc(N2CCN(c3ncc(-c4ccc(-n5cnn(CN6CCN(C)CC6)c5=O)c(F)c4)cc3C#N)[C@@H](C)C2)nc1 [Example 27, (S)-2-(4-(5-ethylpyrimidin-2-yl)-2-methylpiperazin-1-yl)-5-(3-fluoro-4-(1-((4-methylpiperazin-1-yl)methyl)-5-oxo-1H-1,2,4-triazol-4(5H)-yl)phenyl)nicotinonitrile]
21 nM | 3.0 Fold | 109.3 % RR | CCc1cnc(N2CCN(c3ncc(-c4ccc(-n5cnn([C@H]6CCNC6)c5=O)cc4)cc3C#N)CC2)nc1 [Example 42, (S)-2-(4-(5-ethylpyrimidin-2-yl)piperazin-1-yl)-5-(4-(5-oxo-1-(pyrrolidin-3-yl)-1H-1,2,4-triazol-4(5H)-yl)phenyl)nicotinonitrile]
5.6 nM | 3.0 Fold | 104.2 % RR | CC(C)n1ncn(-c2ccc(-c3cnc(N4CCC(c5nnc(C(F)(F)F)o5)CC4)c(C#N)c3)cc2F)c1=O [Example 74, 5-(3-fluoro-4-(1-isopropyl-5-oxo-1H-1,2,4-triazol-4(5H)-yl)phenyl)-2-(4-(5-(trifluoromethyl)-1,3,4-oxadiazol-2-yl)piperidin-1-yl)nicotinonitrile]
5.6 nM | 3.1 Fold | 109.6 % RR | CCc1cnc(N2CCN(c3ncc(-c4ccc(-n5cnn(CCNC(C)C)c5=O)c(F)c4)cc3C#N)[C@@H](C)C2)nc1.Cl [Example 20, (S)-2-(4-(5-ethylpyrimidin-2-yl)-2-methylpiperazin-1-yl)-5-(3-fluoro-4-(1-(2-(isopropylamino)ethyl)-5-oxo-1H-1,2,4-triazol-4(5H)-yl)phenyl)nicotinonitrile hydrochloride]
1 nM | 2.6 Fold | 103.8 % RR | CCc1cnc(N2CCN(c3ncc(-c4ccc(-n5cnn(CC(C)C)c5=O)c(F)c4)cc3C#N)[C@@H](C)C2)nc1 [Example 12, (S)-2-(4-(5-ethylpyrimidin-2-yl)-2-methylpiperazin-1-yl)-5-(3-fluoro-4-(1-isobutyl-5-oxo-1H-1,2,4-triazol-4(5H)-yl)phenyl)nicotinonitrile]
2.6 nM | 3.8 Fold | 130.8 % RR | CC(C)c1nc(C2CCN(c3ncc(-c4ccc(-n5cnn(CN6CCCC6)c5=O)c(F)c4)cc3C#N)CC2)no1 [Example 68]
5 nM | 2.9 Fold | 102.1 % RR | CCc1cnc(N2CCN(c3ncc(-c4ccc(-n5cnn(CC(C)(C)O)c5=O)c(F)c4)cc3C#N)[C@@H](C)C2)nc1 [Example 11, (S)-2-(4-(5-ethylpyrimidin-2-yl)-2-methylpiperazin-1-yl)-5-(3-fluoro-4-(1-(2-hydroxy-2-methylpropyl)-5-oxo-1H-1,2,4-triazol-4(5H)-yl)phenyl)nicotinonitrile]
7.9 nM | 3.4 Fold | 111.7 % RR | CCc1cnc(N2CCN(c3ncc(-c4ccc(-n5cnn(CCNS(C)(=O)=O)c5=O)c(F)c4)cc3C#N)[C@@H](C)C2)nc1 [Example 23, (S)—N-(2-(4-(4-(5-cyano-6-(4-(5-ethylpyrimidin-2-yl)-2-methylpiperazin-1-yl)pyridin-3-yl)-2-fluorophenyl)-5-oxo-4,5-dihydro-1H-1,2,4-triazol-1-yl)ethyl)methanesulfonamide]
16 nM | 2.6 Fold | 105.4 % RR | CC(C)n1ncn(-c2ccc(-c3cnc(N4CCC(N(C)C(=O)OC(C)(C)C)CC4)c(C#N)c3)cc2F)c1=O [Example 58, tert-butyl 1-(3-cyano-5-(3-fluoro-4-(1-isopropyl-5-oxo-1H-1,2,4-triazol-4(5H)-yl)phenyl)pyridin-2-yl)piperidin-4-yl(methyl)carbamate]
4.2 nM | 3.9 Fold | 133.3 % RR | CC(C)c1nc(N2CCN(c3ncc(-c4ccc(-n5cnn(C(C)C)c5=O)c(F)c4)cc3C#N)CC2)no1 [Example 46, 5-(3-fluoro-4-(1-isopropyl-5-oxo-1H-1,2,4-triazol-4(5H)-yl)phenyl)-2-(4-(5-isopropyl-1,2,4-oxadiazol-3-yl)piperazin-1-yl)nicotinonitrile]
7.2 nM | 3.3 Fold | 116.8 % RR | CCc1cnc(N2CCN(c3ncc(-c4ccc(-n5cnn(CCNC(=O)OC(C)(C)C)c5=O)c(F)c4)cc3C#N)[C@@H](C)C2)nc1 [Example 16, (S)-tert-butyl 2-(4-(4-(5-cyano-6-(4-(5-ethylpyrimidin-2-yl)-2-methylpiperazin-1-yl)pyridin-3-yl)-2-fluorophenyl)-5-oxo-4,5-dihydro-1H-1,2,4-triazol-1-yl)ethylcarbamate]
20 nM | 3.4 Fold | 112.5 % RR | CCc1cnc(N2CCN(c3ncc(-c4ccc(-n5cnn(CCNC(C)=O)c5=O)c(F)c4)cc3C#N)[C@@H](C)C2)nc1 [Example 26, (S)—N-(2-(4-(4-(5-cyano-6-(4-(5-ethylpyrimidin-2-yl)-2-methylpiperazin-1-yl)pyridin-3-yl)-2-fluorophenyl)-5-oxo-4,5-dihydro-1H-1,2,4-triazol-1-yl)ethyl)acetamide]
4.5 nM | 3.6 Fold | 124.6 % RR | CCOC(=O)n1ncn(-c2ccc(-c3cnc(N4CCN(c5ncc(CC)cn5)C[C@@H]4C)c(C#N)c3)cc2F)c1=O [Example 24, (S)-ethyl 4-(4-(5-cyano-6-(4-(5-ethylpyrimidin-2-yl)-2-methylpiperazin-1-yl)pyridin-3-yl)-2-fluorophenyl)-5-oxo-4,5-dihydro-1H-1,2,4-triazol-1-carboxylate]
17 nM | 2.9 Fold | 104.6 % RR | CCc1cnc(N2CCN(c3ncc(-c4ccc(-n5cnn(CC#N)c5=O)c(F)c4)cc3C#N)[C@@H](C)C2)nc1 [Example 18, (S)-5-(4-(1-(cyanomethyl)-5-oxo-1H-1,2,4-triazol-4(5H)-yl)-3-fluorophenyl)-2-(4-(5-ethylpyrimidin-2-yl)-2-methylpiperazin-1-yl)nicotinonitrile]
7.3 nM | 4.2 Fold | 144.7 % RR | CC(C)c1nc(N2CCN(c3ncc(-c4ccc(-n5cnn(C)c5=O)c(F)c4)cc3C#N)CC2)no1 [Example 45, 5-(3-fluoro-4-(1-methyl-5-oxo-1H-1,2,4-triazol-4(5H)-yl)phenyl)-2-(4-(5-isopropyl-1,2,4-oxadiazol-3-yl)piperazin-1-yl)nicotinonitrile]
